Tested on: ASD patient
Experiment: ABC-J aberrant behavior checklist (58 items, each rated 0 no problems to 3 marked; 5 subscales) in ASD patients before and after oral intake of test drug
Type: in vivo, human
Parameters: key to ABC-J subscale total score: Hyperactivity / ABC-J subscale total score: Inappropriate Speech: subscale total: sum of its item scores (each 0 = none to 3 = marked)
Experimental: ABC-J is an aberrant behavior checklist available in Japan, which was made by translating and standardizing the revised version of the aberrant behavior checklist developed by American psychologists Aman M. G. and Singh N. N. as a rating scale for quantitatively assessing behavioral disorders associated with intellectual disability and developmental disorder. ABC-J is composed of 58 items that represent problematic behaviors, and a subject is assessed for each item on the following four-rating scale: there are no problems (0 points); the degree of problematic behavior is mild (1 point); the degree of problematic behavior is moderate (2 points); and the degree of problematic behavior is marked (3 points). These 58 items are classified into five subscales: I. Irritability (15 items); II. Lethargy (16 items); III. Stereotypical Behavior (7 items); IV. Hyperactivity (16 items); and V. Inappropriate Speech (4 items). Assessment can be made for each subscale (Ministry of Health, Labour and Welfare, Year 2012 Total Welfare Promotion Project for People with Disabilities, Guidelines for Support for and Assessment of Children with Developmental Disabilities, Asperger Society Japan (a specified non-profit organization), March 2013). […]
An ASD patient (body weight: 45 kg) orally took the test drug detailed below every day for 8 weeks, and their symptoms of ASD were assessed by the diagnostic method described below before (before the start of administration) and 8 weeks after the intake of the drug (8 weeks after the start of administration).
The symptoms of ASD of the ASD patient were assessed based on the scores of ABC-J, PARS-TR, and RSB-R (Japanese version) by a medical doctor who is a researcher of ASD. […]

[1] = case 1, 600 mg/day oral + fursultiamine 25 mg/day, 1 month after start, before administration: 0
[2] = case 1, 600 mg/day oral + fursultiamine 25 mg/day, 1 month after start, before administration: 1
[3] = case 1, 600 mg/day oral + fursultiamine 25 mg/day, 1 month after start, before administration: 2
[4] = case 1, 600 mg/day oral + fursultiamine 25 mg/day, 1 month after start, before administration: 3
[5] = case 2, 600 mg/day oral + fursultiamine 25 mg/day, 17 days after start, before administration: 0
[6] = case 2, 600 mg/day oral + fursultiamine 25 mg/day, 17 days after start, before administration: 1
[7] = case 2, 600 mg/day oral + fursultiamine 25 mg/day, 17 days after start, before administration: 2
[8] = case 2, 600 mg/day oral + fursultiamine 25 mg/day, 17 days after start, before administration: 4
[9] = case 4, 800 mg/day oral + fursultiamine 25 mg/day, 8 weeks

Cc1ncc(CO)c(CN)c1O.Cl.Cl [pyridoxamine dihydrochloride]
5: ABC-J subscale total score: Lethargy (case 2, 600 mg/day oral + fursultiamine 25 mg/day, 17 days after start, before administration: 18)
6: ABC-J subscale total score: Lethargy (case 1, 600 mg/day oral + fursultiamine 25 mg/day, 1 month after start, before administration: 10) | ABC-J subscale total score: Stereotypical Behavior (case 1, 600 mg/day oral + fursultiamine 25 mg/day, 1 month after start, before administration: 15)
0: ABC-J item 2 score (Irritability) [1] | ABC-J item 3 score (Lethargy) [1] | ABC-J item 5 score (Lethargy) [1] | ABC-J item 9 score (Inappropriate Speech) [1] | ABC-J item 13 score (Hyperactivity) [1] | ABC-J item 16 score (Lethargy) [1] | ABC-J item 33 score (Inappropriate Speech) [1] | ABC-J item 34 score (Irritability) [1] | ABC-J item 42 score (Lethargy) [1] | ABC-J item 47 score (Irritability) [1] | ABC-J item 50 score (Irritability) [1] | ABC-J item 52 score (Irritability) [1] | ABC-J item 53 score (Lethargy) [1] | ABC-J item 54 score (Hyperactivity) [1] | ABC-J item 55 score (Lethargy) [1] | ABC-J item 56 score (Hyperactivity) [1] | ABC-J item 8 score (Irritability) [2] | ABC-J item 17 score (Stereotypical Behavior) [2] | ABC-J item 18 score (Hyperactivity) [2] | ABC-J item 19 score (Irritability) [2] | ABC-J item 21 score (Hyperactivity) [2] | ABC-J item 24 score (Hyperactivity) [2] | ABC-J item 25 score (Irritability) [2] | ABC-J item 26 score (Lethargy) [2] | ABC-J item 28 score (Hyperactivity) [2] | ABC-J item 29 score (Irritability) [2] | ABC-J item 30 score (Lethargy) [2] | ABC-J item 31 score (Hyperactivity) [2] | ABC-J item 36 score (Irritability) [2] | ABC-J item 37 score (Lethargy) [2] | ABC-J item 41 score (Irritability) [2] | ABC-J item 43 score (Lethargy) [2] | ABC-J item 46 score (Inappropriate Speech) [2] | ABC-J item 51 score (Hyperactivity) [2] | ABC-J item 57 score (Irritability) [2] | ABC-J item 7 score (Hyperactivity) [3] | ABC-J item 10 score (Irritability) [3] | ABC-J item 14 score (Irritability) [3] | ABC-J item 39 score (Hyperactivity) [3] | ABC-J item 44 score (Hyperactivity) [3] | ABC-J item 2 score (Irritability) [5] | ABC-J item 7 score (Hyperactivity) [5] | ABC-J item 8 score (Irritability) [5] | ABC-J item 9 score (Inappropriate Speech) [5] | ABC-J item 11 score (Stereotypical Behavior) [5] | ABC-J item 13 score (Hyperactivity) [5] | ABC-J item 17 score (Stereotypical Behavior) [5] | ABC-J item 18 score (Hyperactivity) [5] | ABC-J item 19 score (Irritability) [5] | ABC-J item 27 score (Stereotypical Behavior) [5] | ABC-J item 28 score (Hyperactivity) [5] | ABC-J item 29 score (Irritability) [5] | ABC-J item 31 score (Hyperactivity) [5] | ABC-J item 32 score (Lethargy) [5] | ABC-J item 33 score (Inappropriate Speech) [5] | ABC-J item 34 score (Irritability) [5] | ABC-J item 36 score (Irritability) [5] | ABC-J item 38 score (Hyperactivity) [5] | ABC-J item 39 score (Hyperactivity) [5] | ABC-J item 41 score (Irritability) [5] | ABC-J item 44 score (Hyperactivity) [5] | ABC-J item 47 score (Irritability) [5] | ABC-J item 48 score (Hyperactivity) [5] | ABC-J item 49 score (Stereotypical Behavior) [5] | ABC-J item 50 score (Irritability) [5] | ABC-J item 51 score (Hyperactivity) [5] | ABC-J item 52 score (Irritability) [5] | ABC-J item 53 score (Lethargy) [5] | ABC-J item 54 score (Hyperactivity) [5] | ABC-J item 55 score (Lethargy) [5] | ABC-J item 56 score (Hyperactivity) [5] | ABC-J item 57 score (Irritability) [5] | ABC-J item 4 score (Irritability) [6] | ABC-J item 10 score (Irritability) [6] | ABC-J item 12 score (Lethargy) [6] | ABC-J item 20 score (Lethargy) [6] | ABC-J item 21 score (Hyperactivity) [6] | ABC-J item 23 score (Lethargy) [6] | ABC-J item 24 score (Hyperactivity) [6] | ABC-J item 30 score (Lethargy) [6] | ABC-J item 35 score (Stereotypical Behavior) [6] | ABC-J item 37 score (Lethargy) [6] | ABC-J item 40 score (Lethargy) [6] | ABC-J item 43 score (Lethargy) [6] | ABC-J item 58 score (Lethargy) [6] | ABC-J item 3 score (Lethargy) [7] | ABC-J item 14 score (Irritability) [7] | ABC-J item 25 score (Irritability) [7] | ABC-J subscale total score: Irritability (case 2, 600 mg/day oral + fursultiamine 25 mg/day, 17 days after start, before administration: 6)
1: ABC-J item 4 score (Irritability) [1] | ABC-J item 32 score (Lethargy) [1] | ABC-J item 12 score (Lethargy) [2] | ABC-J item 20 score (Lethargy) [2] | ABC-J item 40 score (Lethargy) [2] | ABC-J item 48 score (Hyperactivity) [2] | ABC-J item 58 score (Lethargy) [2] | ABC-J item 1 score (Hyperactivity) [3] | ABC-J item 15 score (Hyperactivity) [3] | ABC-J item 22 score (Inappropriate Speech) [3] | ABC-J item 23 score (Lethargy) [3] | ABC-J item 27 score (Stereotypical Behavior) [3] | ABC-J item 35 score (Stereotypical Behavior) [3] | ABC-J item 38 score (Hyperactivity) [3] | ABC-J item 45 score (Stereotypical Behavior) [3] | ABC-J item 49 score (Stereotypical Behavior) [3] | ABC-J item 6 score (Stereotypical Behavior) [4] | ABC-J item 11 score (Stereotypical Behavior) [4] | ABC-J subscale total score: Inappropriate Speech [4] | ABC-J subscale total score: Irritability (case 1, 600 mg/day oral + fursultiamine 25 mg/day, 1 month after start, before administration: 11) | ABC-J item 1 score (Hyperactivity) [6] | ABC-J item 15 score (Hyperactivity) [6] | ABC-J item 26 score (Lethargy) [6] | ABC-J item 5 score (Lethargy) [7] | ABC-J item 6 score (Stereotypical Behavior) [7] | ABC-J item 16 score (Lethargy) [7] | ABC-J item 22 score (Inappropriate Speech) [7] | ABC-J item 45 score (Stereotypical Behavior) [7] | ABC-J item 46 score (Inappropriate Speech) [7]
2: ABC-J item 42 score (Lethargy) (case 2, 600 mg/day oral + fursultiamine 25 mg/day, 17 days after start, before administration: 3) | ABC-J subscale total score: Hyperactivity [8] | ABC-J subscale total score: Inappropriate Speech [8] | ABC-J subscale total score: Stereotypical Behavior (case 2, 600 mg/day oral + fursultiamine 25 mg/day, 17 days after start, before administration: 5)
significant improvement in symptoms: ABC-J symptoms across the 5 subscales I to V compared with before taking the drug (case 1, 600 mg/day oral + fursultiamine 25 mg/day, 1 month)
4: ABC-J subscale total score: Hyperactivity (case 1, 600 mg/day oral + fursultiamine 25 mg/day, 1 month after start, before administration: 19)
decreased: total score of all ABC-J items compared with before administration (case 3, 800 mg/day oral + fursultiamine 25 mg/day, 8 weeks, FIG. 7A) | ABC-J total score of each of the 5 subscales compared with before administration (case 3, 800 mg/day oral + fursultiamine 25 mg/day, 8 weeks, FIG. 7B) | total score of all items of ABC-J compared with before administration (case 4 (no speech), 800 mg/day oral + fursultiamine 25 mg/day, 8 weeks, FIG. 9A) | ABC-J subtotal score of the four subscales compared with before administration (case 4, 800 mg/day oral + fursultiamine 25 mg/day, 8 weeks, Inappropriate Speech zero because no speech, FIG. 9B)
significantly improved symptoms: ABC-J symptoms across all of the 5 subscales I to V (case 2, 600 mg/day oral + fursultiamine 25 mg/day, 17 days)
alleviated the severity: severity of irritability and self-harming behavior [9]
significantly improved: stereotypical behaviors (DSM-5 diagnostic criteria B(1)) [9]

Source: patent US11253519B2, “Composition used to improve symptoms of autism spectrum disorder, and method using same for improving symptoms of autism spectrum disorder” (RENASCIENCE CO., LTD., priority 2016, dated 2022)
